Experimental data: ChEMBL document CHEMBL2069251, “Synthesis and antifungal activity of 1-thia-4b-aza-cyclopenta[b]fluorene-4,10-diones” (2012)
Values after ≈ are worked out from the molar mass of the structure shown.

What was measured:
Type in all cases: functional
Candida albicans = assay: Antifungal activity against Candida albicans Berkout KCCM 50235 after 1 day by twofold broth dilution method; conditions: Berkout KCCM 50235, 24 h
Candida tropicalis = assay: Antifungal activity against Candida tropicalis Berkout KCCM 50662 after 1 day by twofold broth dilution method; conditions: Berkout KCCM 50662, 24 h
Pichia kudriavzevii = assay: Antifungal activity against Candida krusei Berkout KCCM 11655 after 1 day by twofold broth dilution method; conditions: Berkout KCCM 11655, 24 h
Cryptococcus neoformans = assay: Antifungal activity against Cryptococcus neoformans KCCM 50564 after 1 day by twofold broth dilution method; conditions: KCCM 50564, 24 h
Aspergillus niger = assay: Antifungal activity against Aspergillus niger KCTC 1231 after 2 days by twofold broth dilution method; conditions: KCTC 1231, 48 h
Aspergillus flavus = assay: Antifungal activity against Aspergillus flavus KCCM 11899 after 2 days by twofold broth dilution method; conditions: KCCM 11899, 48 h

Compound | MIC (Candida albicans) [µg/mL] | MIC (Candida tropicalis) [µg/mL] | MIC (Pichia kudriavzevii) [µg/mL] | MIC (Cryptococcus neoformans) [µg/mL] | MIC (Aspergillus niger) [µg/mL] | MIC (Aspergillus flavus) [µg/mL]
COC(=O)c1cc2c(s1)C(=O)c1c(C(C)=O)c3cc(Cl)ccn3c1C2=O | 50 (≈ 129 µM) | 25 (≈ 64.5 µM) | 50 (≈ 129 µM) | 12.5 (≈ 32.2 µM) | 6.3 (≈ 16.2 µM) | 12.5 (≈ 32.2 µM)
COC(=O)c1cc2c(s1)C(=O)c1c(C(C)=O)c3ccc(C)cn3c1C2=O | 12.5 (≈ 34 µM) | 25 (≈ 68 µM) | 50 (≈ 136 µM) | 12.5 (≈ 34 µM) | 6.3 (≈ 17.1 µM) | 12.5 (≈ 34 µM)
CCc1ccc2c(C(C)=O)c3c(n2c1)C(=O)c1cc(C(=O)OC)sc1C3=O | 12.5 (≈ 32.8 µM) | 50 (≈ 131 µM) | 50 (≈ 131 µM) | 6.3 (≈ 16.5 µM) | 12.5 (≈ 32.8 µM) | 6.3 (≈ 16.5 µM)
COC(=O)c1cc2c(s1)C(=O)c1c(C(C)=O)c3cc(C#N)ccn3c1C2=O | 25 (≈ 66.1 µM) | 25 (≈ 66.1 µM) | 25 (≈ 66.1 µM) | 6.3 (≈ 16.7 µM) | 12.5 (≈ 33 µM) | 12.5 (≈ 33 µM)
COC(=O)c1cc2c(s1)C(=O)c1c(C(C)=O)c3ccc(F)cn3c1C2=O | 50 (≈ 135 µM) | 25 (≈ 67.3 µM) | 25 (≈ 67.3 µM) | 50 (≈ 135 µM) | 50 (≈ 135 µM) | 50 (≈ 135 µM)
COC(=O)c1cc2c(s1)C(=O)c1c(C(C)=O)c3ccc(Cl)cn3c1C2=O | 12.5 (≈ 32.2 µM) | 3.2 (≈ 8.25 µM) | 6.3 (≈ 16.2 µM) | 3.2 (≈ 8.25 µM) | 12.5 (≈ 32.2 µM) | 25 (≈ 64.5 µM)
COC(=O)c1cc2c(s1)C(=O)c1c(C(C)=O)c3ccc(Br)cn3c1C2=O | 6.3 (≈ 14.6 µM) | 12.5 (≈ 28.9 µM) | 6.3 (≈ 14.6 µM) | 1.6 (≈ 3.7 µM) | 6.3 (≈ 14.6 µM) | 12.5 (≈ 28.9 µM)
COC(=O)c1cc2c(s1)C(=O)c1c(C(=O)OC)c3ccccn3c1C2=O | 50 (≈ 135 µM) | 25 (≈ 67.7 µM) | 50 (≈ 135 µM) | 12.5 (≈ 33.8 µM) | 25 (≈ 67.7 µM) | 12.5 (≈ 33.8 µM)
CCOC(=O)c1c2c(n3ccccc13)C(=O)c1cc(C(=O)OC)sc1C2=O | 50 (≈ 130 µM) | 12.5 (≈ 32.6 µM) | 12.5 (≈ 32.6 µM) | 50 (≈ 130 µM) | 12.5 (≈ 32.6 µM) | 50 (≈ 130 µM)
CCOC(=O)c1c2c(n3cc(C)ccc13)C(=O)c1cc(C(=O)OC)sc1C2=O | 25 (≈ 62.9 µM) | 12.5 (≈ 31.5 µM) | 25 (≈ 62.9 µM) | 12.5 (≈ 31.5 µM) | 25 (≈ 62.9 µM) | 6.3 (≈ 15.9 µM)
CCOC(=O)c1c2c(n3ccc(OC)cc13)C(=O)c1cc(C(=O)OC)sc1C2=O | 50 (≈ 121 µM) | 50 (≈ 121 µM) | 100 (≈ 242 µM) | 50 (≈ 121 µM) | 100 (≈ 242 µM) | 50 (≈ 121 µM)
CCOC(=O)c1c2c(n3ccc(C#N)cc13)C(=O)c1cc(C(=O)OC)sc1C2=O | 12.5 (≈ 30.6 µM) | 12.5 (≈ 30.6 µM) | 50 (≈ 122 µM) | 25 (≈ 61.2 µM) | 3.2 (≈ 7.84 µM) | 50 (≈ 122 µM)
CCOC(=O)c1c2c(n3cc(F)ccc13)C(=O)c1cc(C(=O)OC)sc1C2=O | 6.3 (≈ 15.7 µM) | 50 (≈ 125 µM) | 12.5 (≈ 31.1 µM) | 12.5 (≈ 31.1 µM) | 50 (≈ 125 µM) | 12.5 (≈ 31.1 µM)
CCOC(=O)c1c2c(n3cc(Cl)ccc13)C(=O)c1cc(C(=O)OC)sc1C2=O | 6.3 (≈ 15.1 µM) | 6.3 (≈ 15.1 µM) | 6.3 (≈ 15.1 µM) | 25 (≈ 59.8 µM) | 6.3 (≈ 15.1 µM) | 25 (≈ 59.8 µM)
CCOC(=O)c1c2c(n3cc(Br)ccc13)C(=O)c1cc(C(=O)OC)sc1C2=O | 3.2 (≈ 6.92 µM) | 1.6 (≈ 3.46 µM) | 12.5 (≈ 27 µM) | 1.6 (≈ 3.46 µM) | 3.2 (≈ 6.92 µM) | 1.6 (≈ 3.46 µM)
COC(=O)c1cc2c(OC)ccc(OC)c2s1 | 100 (≈ 396 µM) | > 100 | 50 (≈ 198 µM) | > 100 | 100 (≈ 396 µM) | 100 (≈ 396 µM)
COC(=O)c1cc2c(s1)C(=O)C(Cl)=C([n+]1ccc(Cl)cc1)C2=O.[Cl-] | 12.5 | 25 | 50 | 12.5 | 3.2 | 12.5
COC(=O)c1cc2c(s1)C(=O)C(Cl)=C([n+]1ccc(C#N)cc1)C2=O.[Cl-] | 25 | 50 | 50 | 6.3 | 3.2 | 6.3
CCc1ccc[n+](C2=C(Cl)C(=O)c3sc(C(=O)OC)cc3C2=O)c1.[Cl-] | 50 | 25 | 50 | 12.5 | 6.3 | 12.5
COC(=O)c1cc2c(s1)C(=O)C(Cl)=C([n+]1ccc(OC)cc1)C2=O.[Cl-] | 100 | 50 | 50 | 50 | 100 | 50
COC(=O)c1cc2c(s1)C(=O)C(Cl)=C([n+]1cccc(Cl)c1)C2=O.[Cl-] | 3.2 | 1.6 | 3.2 | 50 | 3.2 | 3.2
COC(=O)c1cc2c(s1)C(=O)C(Cl)=C([n+]1cccc(Br)c1)C2=O.[Cl-] | 50 | 50 | 25 | 50 | 12.5 | 50
OC(Cn1cncn1)(Cn1cncn1)c1ccc(F)cc1F [FLUCONAZOLE] | 50 (≈ 163 µM) | 3.2 (≈ 10.4 µM) | 25 (≈ 81.6 µM) | 6.3 (≈ 20.6 µM) | 6.3 (≈ 20.6 µM) | 25 (≈ 81.6 µM)
Nc1nc(=O)[nH]cc1F [FLUCYTOSINE] | 3.2 (≈ 24.8 µM) | 6.3 (≈ 48.8 µM) | 6.3 (≈ 48.8 µM) | 6.3 (≈ 48.8 µM) | 6.3 (≈ 48.8 µM) | 25 (≈ 194 µM)
